pIC50: −log10 of the molar value.
What was measured:
[1] = system: conventional sunflowers (Edison, ES Coloris Clearfield, inbred line HA452); assay: Field trials of sunflower sensitivity to saflufenacil (Example 1); assay type: in vivo, Helianthus annuus
Experimental: Research was conducted to evaluate the sensitivity of sunflower to the herbicide comprising the active ingredient (AI) saflufenacil (Trade name: Kixor™). The herbicide was applied in 2 field trials at different rates ranging from 0.91 g to 14 g a.i./ha (with 0.5-1% MSO-methylated seed oil-adjuvant) to 2 commercial sunflower varieties [a) a conventional (non-herbicide tolerant) sunflower (“Edison”) which is a linoleic oil-type sunflower, and b) a herbicide tolerant sunflower (“ES Coloris Clearfield which is a linoleic oil-type sunflower] and a public inbred line HA452, from the USDA (United States Department of Agriculture) National Plant Germplasm System (NPGS), deposited under Accession No. PI 642771. The treated plants were at the 2-to-4 leaf-stage (BBCH12-14). Trials were set up in a randomized complete block design with 3 replications and rated for herbicide phytotoxicity (percentage damage) 3, 7, 10 and 14 days after treatment (see also Example 4 for more details). Herbicide phytotoxicity ranges from 0% phytotoxicity (full tolerance) to 100% phytotoxicity (full susceptibility or absence of tolerance).
Full control of all sunflower materials was even observed at the first phytotoxicity evaluation time point, 3 days after treatment (DAT) with saflufenacil (results not shown).
The second field trial (trial 2) compared the adjuvant MSO at two concentrations: 1% v/v, concentration used by the farmer and 0.5%, half the concentration (FIG. 2). With the MSO concentration of 0.5% v/v, which lowers the general herbicidal efficacy of saflufenacil in weeds, control of all sunflower materials was around 80% at the lowest rate of saflufenacil (0.91 g a.i./ha) and 100% at 1.75 g a.i./ha and higher (FIG. 2).

[2] = system: Wild Type (WT) sunflower line; assay: Field PPO cross-tolerance trial, wild type (Example 8); assay type: in vivo; conditions: for Phytotoxicity (%) Wild Type (WT) 6DAT / Phytotoxicity (%) Wild Type (WT) 11DAT / Phytotoxicity (%) Wild Type (WT) 14DAT: MSO 1% v/v
Experimental: (§1) A field trial was carried out to assess PPO cross-tolerance in non-introgressed, selfed, homozygous PPO2_F4201 mutants, as well as to assess tolerance differences using increasing rates of herbicides listed in Table 5. The field trial was done in Utrera, Spain, in September of 2021.
(§2) Herbicide treatments (Table 5) were applied in the field when plants had the BBCH12-14 growth stage (2-4 leaves). The field trial design was the randomized complete block design, and 1 replication was considered due to limitation in seed availability. Two entries were used in the field trial, the WT line and the PPO2_F4201 mutant. The experimental plot consisted of 1 entry per plot and 1 row per entry.
(§3) Phytotoxicity of mutant and WT entries was recorded over time, at 6, 11 and 14 DAT, where 100% phytotoxicity indicates complete control (dead plants), and 0% phytotoxicity indicates no control or alive plants without any herbicide injury.

[3] = system: progeny of mutant lead LIH16358 (PPO2_F383I); assay: Greenhouse re-assessment of saflufenacil tolerance, mutant progeny (Example 3); assay type: in vivo, Helianthus annuus
Text: (§4) As it is not uncommon that in forward field mutant screening for herbicide tolerance ‘false’ tolerant plants are selected, the field candidates were reassessed in the greenhouse. Field harvested seeds of the mutant lead LIH16358 were planted in the greenhouse on Nov. 26, 2019, in Limburgerhof, Germany. The greenhouse trial had the objective to verify if the progeny of mutant lead LIH16358 would survive treatment with saflufenacil. Seeds of the susceptible wild type (HA452) line were planted in the same greenhouse trial as the susceptible reference. Saflufenacil was sprayed at 2.5 g a.i./ha on Dec. 10, 2019. The 2.5 g a.i./ha of saflufenacil corresponds to 12.5 g a.i./ha in field conditions. The final phytotoxicity evaluation in the treated plants was done on Dec. 24, 2019.
(§5) The tolerant progeny individuals of mutant lead LIH16358 produced seeds, which were planted in a follow up greenhouse trial on May 19, 2020. The plants were sprayed with 2.0 g a.i./ha of saflufenacil on Jun. 3, 2020.

[4] = system: wild type (WT) sunflower line (RHA473); assay: Greenhouse PPO cross-tolerance trial, wild type (Example 7); assay type: in vivo; conditions: dose as low as 1.25 g/ha, greenhouse, MSO 1% v/v
Experimental: (§6) In August of 2021, a greenhouse herbicide trial was carried out in Zwijnaarde, Belgium. A homozygous PPO2_F4201 sunflower seed lot (HA452-M), and a wild type (WT) sunflower line (RHA473) were used in the greenhouse trial. Sixteen homozygous PPO2_F4201 mutant plants and six WT plants were sown and treated with each herbicide. […]

[5] = system: PPO2_F383I mutant PPO2 enzyme; assay: In vitro PPO inhibition assay, mutant enzyme (Example 5); assay type: biochemical, sunflower; conditions: PPO2_F383I versus wild type IC50
Text: (§7) To test whether the PPO2_F383I is the main cause of the observed saflufenacil tolerance, we used an in vitro to compare the inhibition potency (IC50) of different PPO inhibiting herbicides between wild-type and mutant PPO2 enzyme. The in vitro assay assesses the oxidation of protoporphyrinogen IX to protoporphyrin IX, catalyzed by the PPO enzyme. Both the wild type and mutant PPO2 proteins were heterologously expressed in E. coli and purified. Purified protein was mixed with different concentrations of the herbicide ranging from 10^−5M to 10^−11M and protein activity was measured. Protein activity is defined as the fluorescence per minute that the reaction generates. In the reaction, the purified PPO enzyme is mixed with substrate protoporphyrinogen IX and the herbicide. The product of the reaction is excited at 405 nm and produces a fluorescence at 630 nm which we detect. IC50 (in Mol) and tolerance factor were calculated.

[6] = target: PPO2_F383I mutant PPO2 enzyme (Helianthus annuus, UniProt A0A251TWC2, F383I); assay: as above; assay type: biochemical, sunflower
Chain of PPO2_F383I mutant PPO2 enzyme (Helianthus annuus, UniProt A0A251TWC2, F383I) (A0A251TWC2 entry or part of it F383I): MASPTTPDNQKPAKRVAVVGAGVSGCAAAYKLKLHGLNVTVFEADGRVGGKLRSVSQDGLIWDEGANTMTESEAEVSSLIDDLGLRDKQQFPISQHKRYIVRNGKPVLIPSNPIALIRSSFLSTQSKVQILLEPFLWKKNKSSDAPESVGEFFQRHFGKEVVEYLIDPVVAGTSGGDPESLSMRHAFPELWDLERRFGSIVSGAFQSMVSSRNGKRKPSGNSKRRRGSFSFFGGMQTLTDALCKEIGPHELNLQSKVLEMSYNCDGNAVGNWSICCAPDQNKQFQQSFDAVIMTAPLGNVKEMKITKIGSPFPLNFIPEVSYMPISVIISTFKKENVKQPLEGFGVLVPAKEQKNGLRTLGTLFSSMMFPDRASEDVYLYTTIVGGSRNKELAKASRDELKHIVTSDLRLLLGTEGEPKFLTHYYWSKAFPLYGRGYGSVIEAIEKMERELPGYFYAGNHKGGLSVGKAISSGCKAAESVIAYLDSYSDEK
Text: as §7

[7] = system: PPO2_F420I Mutant sunflower; assay: Field PPO cross-tolerance trial, mutant (Example 8); assay type: in vivo; conditions: for Phytotoxicity (%) PPO2_F420I Mutant 6DAT / Phytotoxicity (%) PPO2_F420I Mutant 11DAT / Phytotoxicity (%) PPO2_F420I Mutant 14DAT: MSO 1% v/v
Experimental: as §1, §2, §3

[8] = system: homozygous PPO2_F4201 sunflower (HA452-M); assay: Greenhouse PPO cross-tolerance trial, mutant (Example 7); assay type: in vivo
Experimental: as §6

[9] = system: susceptible wild type (HA452) line; assay: Greenhouse re-assessment of saflufenacil tolerance, wild type reference (Example 3); assay type: in vivo, Helianthus annuus
Text: as §4, §5

With `CC(C)N(C)S(=O)(=O)NC(=O)c1cc(-n2c(=O)cc(C(F)(F)F)n(C)c2=O)c(F)cc1Cl` [Saflufenacil] the phytotoxicity ([1]; 0.91 g a.i./ha, 1% v/v MSO) was 100%, the “control of sunflower materials” value ([1]; 1% MSO v/v, all applied rates (0.91 to 14 g a.i./ha), field trial 2) was “total control” and the “control of all sunflower materials” value ([1]; 1.75 g a.i./ha and higher, MSO 0.5% v/v, field trial 2) was 100%. The “control of all sunflower materials” value ([1]; field trial 1, 3 days after treatment) was “Full control”, the “control of all three sunflower materials” value ([1]; field trial 1, lowest saflufenacil rate, after 14 days) was “completed controlled” and the “Phytotoxicity (%) Wild Type (WT) 6DAT” value ([2]; 3.125 g a.i./ha) was 100%. The “Phytotoxicity (%) Wild Type (WT) 11DAT” value ([2]; 3.125 g a.i./ha) was 100%, the “Phytotoxicity (%) Wild Type (WT) 14DAT” value ([2]; 3.125 g a.i./ha) was 100% and the “Phytotoxicity (%) Wild Type (WT) 6DAT” value ([2]; 6.25 g a.i./ha) was 100%. The “Phytotoxicity (%) Wild Type (WT) 11DAT” value ([2]; 6.25 g a.i./ha) was 100%, the “Phytotoxicity (%) Wild Type (WT) 14DAT” value ([2]; 6.25 g a.i./ha) was 100% and the “phytotoxicity in the WT background” value ([2]; saflufenacil 3.125 and 6.25 g a.i./ha) was 100%. For the same compound, the phytotoxicity of individuals ([3]; 2.0 g a.i./ha, second generation progenies, 14 DAT) was ≥ 25%, the survival after treatment ([3]; 2.5 g a.i./ha, first generation progeny) was “survived saflufenacil treatment” and the “kill of WT plants” value [4] was “all killed”. For the same compound, the Tolerance factor [5] was 2897, the pIC50 ([6]; IC50 for PPO2_F383I) was 5.36 and the pIC50 ([6]; PPO2_F383I IC50, purified enzyme expressed in E. coli, herbicide 10^-5 M to 10^-11 M) was 5.37. For the same compound, the “Phytotoxicity (%) PPO2_F420I Mutant 6DAT” value ([7]; 3.125 g a.i./ha) was 40%, the “Phytotoxicity (%) PPO2_F420I Mutant 11DAT” value ([7]; 3.125 g a.i./ha) was 35% and the “Phytotoxicity (%) PPO2_F420I Mutant 14DAT” value ([7]; 3.125 g a.i./ha) was 35%. The “Phytotoxicity (%) PPO2_F420I Mutant 6DAT” value ([7]; 6.25 g a.i./ha) was 45%, the “Phytotoxicity (%) PPO2_F420I Mutant 11DAT” value ([7]; 6.25 g a.i./ha) was 40% and the “Phytotoxicity (%) PPO2_F420I Mutant 14DAT” value ([7]; 6.25 g a.i./ha) was 40%. For the same compound, the “survival of the PPO2_F4201 mutant” value ([7]; all rates of saflufenacil) was “survives”, the “maximum phytotoxicity in the PPO2_F4201 mutants” value ([7]; at 11 and 14 DAT) was 40% and the “recovery of PPO2_F4201 plants after early phytotoxicity at 4 DAT” value ([8]; 10 DAT) was “consistent survival and recovery”. The “survival of PPO2_F4201 plants” value ([8]; all rates tested, MSO 1% v/v) was “survived at all rates”, the phytotoxicity ([9]; 2.0 g a.i./ha, 14 DAT) was 100% and the “control of wild type reference plants” value ([9]; 2.5 g a.i./ha) was “completely controlled and dead”.
